Assay results as given in patent US20230321043A1, “COMPOUNDS HAVING PSEUDOMONAS ANTI-BIOFILM PROPERTIES” (Københavns Universitet, priority 2020, published 2023).

Legend:
[1] = system: c-di-GMP level of P. aeruginosa ΔwspFΔpelΔpsl/pCdrA-gfp; test: microbe, parasite or virus in culture; format: cell-based, Pseudomonas aeruginosa
Description: The ΔwspF mutant overproduces c-di-GMP and the ΔpelΔpsl mutations renders the bacteria deficient in exopolysaccharide production, which keeps the growing bacteria in the planktonic mode.
The reduction of total cellular c-di-GMP level was determined as follows. To evaluate the impact of the various compounds on the c-di-GMP level of P. aeruginosa ΔwspFΔpelΔpsl/pCdrA-gfp, 20 hour old cultures of the strain were diluted 100 fold in microtiter plate wells (Nunc) containing […] aliquots of ABTrace medium supplemented with 0.2% glucose, 0.5% casamino acids, 60 μg/ml gentamicin, 1 μM FeCl3, 1% DMSO, and concentrations of compounds as indicated.
Subsequently the microtiter plates were incubated at 37° C. and 440 RPM in a TECAN reader (Infinite F200 PRO), and corresponding values of cell density (OD600) and GFP fluorescence were measured every 20 minutes for 24 hours. The reduction values indicated in the tables are calculated as fluorescence values divided by optical density at a time point where this value reached a plateau.
The resulting microtiter trays were incubated at 37° C. at 440 RPM in a TECAN reader (Infinite F200 PRO), and corresponding values of GFP flourescence (FU) and cell density (OD600) were measured every 20 minutes for 24 hours. […] In FIG. 3A and 3B, means and standard deviations (bars) represents 3 biological replicates (n=3).

[2] = system: wt P. aeruginosa biofilm; test: dispersal of 8 hour old biofilm, crystal violet staining; format: cell-based, Pseudomonas aeruginosa
Description: Using a 96 well microtiter tray format, a 20 hour old culture of wt P. aeruginosa was diluted 1000 fold into 100 μL ABtrace media aliquots supplemented with 0.2% glucose, 0.5% Cas amino acids and 1 μM FeCl3. The resulting microtiter trays were sealed with an air permeable lid and the biofilm cultures were incubated at 37° C. on a rotary shaker at 160 RPM.
After this, the culture supernatants were discarded and the remaining biomass was stained with crystal violet (Groizeleau et al. 2016). Finally, the amount of Crystal violet bound to the biofilm present in each well was plotted as a function of H6-335-P1, H6-335, H6-335-SAR compound 26 and H6-335- SAR compound 25 in the following concentrations: 100 μM, 50 μM, 25 μM, 12 μM or 0 μM (FIG. 4D). Means and standard deviations (bars) in FIG. 4D represents 5 biological replicates (n=5)

[3] = system: Escherichia coli; test: biofilm formation / dispersal, host range; format: cell-based; conditions: data not shown
[4] = system: Staphylococcus aureus; test: biofilm formation / dispersal, host range; format: cell-based; conditions: data not shown
[5] = system: P. aeruginosa biofilms; test: time dependent antibiotic killing of peg biofilms after H6-335-P1 treatment; format: cell-based, Pseudomonas aeruginosa; conditions: 2 hours 100 μM H6-335-P1, then 30 μg/ml tobramycin or 0.5 μg/ml ciprofloxacin
[6] = system: P. aeruginosa mPA01 wt and PDE mutants incl. PA4367 (bifA); test: dispersal of biofilms of PDE transposon mutants, crystal violet; format: cell-based, Pseudomonas aeruginosa; conditions: 18 hours old biofilm, two hours of treatment, FIG. 6A
Description: The inventors obtained mutants of all P. aeruginosa PDEs from the Washington P. aeruginosa mPAO1 transposon mutant library and investigated the ability of H6-335-P1 to disperse biofilms formed by each of these mutants in microtiter trays. […]
The resulting cultures were incubated at 37° C. on a rotary shaker (160 RPM) and biofilms were grown for 18 hours, at which time point either 2 μL of a 5 mM H6-335-P1 in 50% DMSO (+) or 2 μL of 50% DMSO (−) were added to each well. After two subsequent hours of growth, the culture supernatants were discarded and the amounts of biofilm present in the wells were quantified by crystal violet (CV) staining (Groizeleau et al., 2016).
The amounts of biofilm prevailing after two hours of treatments were determined for the wt strain mPA01 and each of the PDE mutants. […]

[7] = system: Klebsiella pneumoniea; test: biofilm formation / dispersal, host range; format: cell-based; conditions: data not shown
[8] = system: wt P. aeruginosa biofilm; test: time dependent liberation of bacteria from biofilm (CFU); format: cell-based, Pseudomonas aeruginosa; conditions: 25 μM, 18 hours old biofilm, FIG. 4C
Description: In a further experiment (FIG. 4C) the time dependent liberation of wt P. aeruginosa bacteria during H6-335-P1 induced dispersal performed in 48 well trays microtiter trays was determined. After 18 hours of growth in ABtrace media aliquots supplemented with 0.5% glucose, 0.5% Cas amino acids and 1 μM FeCl3 on a rotary shaker, 25 μM H6-335-P1 or 1% DMSO control was added. At the time-points indicated, samples were withdrawn and plated for CFU determinations. Average CFU's per ml for the 1% DMSO controls at each time point are set to 100.

SMILES: N=C1NN=C(N)/C1=N/Nc1ccccc1F [H6-335-P1, 4-[(2-fluorophenyl) hydrazinylidene]pyrazole-3,5-diamine]
- reduction of the fluorescence output of the c-di-GMP monitor cultures ([1]; 100 μM, compared with control cultures with 1% DMSO): 80%
- inhibition at 100 µM ([1]; Pseudomonas aeruginosa, read-out: Reduction of total cellular c-di-GMP level): 80%
- dispersal of an 8 hour old biofilm ([2]; 100 μM, within a 2 hours period): 88%
- rank of biofilm dispersing potency among the four tested compounds ([2]; 12 to 100 μM, two hours of dispersal, FIG. 4D): most potent biofilm dispersing compound
- biofilm formation of Escherichia coli [3]: failed to reduce biofilm formation
- biofilm formation of Staphylococcus aureus [4]: failed to reduce biofilm formation
- surviving cells of biofilms after antibiotic challenge [5]: substantial decrease of surviving cells
- induced dispersal of biofilm of the bifA mutant (PA4367) [6]: did not respond to H6-335-P1 induced dispersal
- induced dispersal of biofilms of P. aeruginosa wt and all the remaining PDE mutants [6]: dispersed in response to H6-335-P1 exposure
- biofilm formation of Klebsiella pneumoniea [7]: failed to reduce biofilm formation
- dispersal of live bacteria from already formed biofilms [8]: induced dispersal of live bacteria into the growth medium
